Series [1] addresses T1, Caspase-like (C-L) proteasome activity (Mus musculus, UniProt Q60692).
T1 construct: RBCs were lysed with assay lysis buffer and incubated on ice for 30 minutes; from tissue; host or cells: red blood cells of NOD/SCID mice after oral dosing
T1 sequence (Q60692 1-238): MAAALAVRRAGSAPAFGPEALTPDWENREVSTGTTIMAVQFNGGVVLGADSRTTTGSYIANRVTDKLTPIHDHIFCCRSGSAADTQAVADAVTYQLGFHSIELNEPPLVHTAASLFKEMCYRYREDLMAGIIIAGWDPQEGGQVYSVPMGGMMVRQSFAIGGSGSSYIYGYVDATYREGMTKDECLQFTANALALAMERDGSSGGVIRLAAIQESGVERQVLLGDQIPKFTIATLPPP
Briefly: Proteasome subunit activity in murine red blood cells after oral administration. In kind it is in vivo, NOD/SCID mice. Conditions: oral gavage, Example 1 50 mg/kg, Example 26 60 mg/kg. The protocol: (§1) Cells were harvested by centrifugation at 1,200 rpm at room temperature. Cell pellets were washed with PBS and lysed with assay lysis buffer (50 mM HEPES (N-2-hydroxyethylpiperazine-N′-2-ethanesulfonic acid), pH 7.5; 150 mM NaCl; 1% Triton X-100; 2 mM ATP). Cell lysates were incubated on ice for 30 minutes, mixed by vortex every 5 minutes, and then centrifuged at 12,000 g for 10 minutes. The supernatant was transferred to a 96-well plate. For each assay, 10 μg of total protein were incubated for 1 hour at 37° C. with increasing concentrations (1 nM to 10 μM) of test compound diluted in assay buffer (50 mM Tris-HCl (tris(hydroxymethyl)aminomethane-HCl), pH 7.5; 150 mM NaCl). DMSO alone was used as a control in every assay plate. After incubation, a specific fluorogenic proteasome substrate was added to each assay reaction at a final concentration of 40 μM in a total volume of 100 μL. N-Succinyl-Leu-Leu-Val-Tyr-7-amino-4-methylcoumarin (Suc-Leu-Leu-Val-Tyr-AMC) was used for measuring chymotrypsin-like (CT-L) activity, t-butoxycarbonyl-Leu-Arg-Arg-7-amino-4-methylcoumarin (Boc-Leu-Arg-Arg-AMC) for trypsin-like (T-L) activity, and benzyloxycarbonyl-L-leucyl-L-leucyl-L-glutamyl-7-amino-4-methylcoumarin (Z-Leu-Leu-Glu-AMC) for caspase-like (C-L) activity. The excitation wavelength was set at 360 nm and the fluorescence emission wavelength of AMC was detected at 460 nm. The fluorescence of free AMC released during the enzymatic reaction was measured with a SpectraMax M5 fluorescent spectrophotometric plate reader (Molecular Devices, Sunnyvale, Calif.). AMC release rate was measured at 37° C. in a kinetic mode, recording every 5 minutes for 30 minutes. Experiments were performed in triplicate and repeated at least twice.
(§2) All mouse experiments were performed in accordance with approval from the Ontario Cancer Institute institutional animal review board. Five- to six-week-old male non-obese diabetic/severe combined immunodeficient (NOD/SCID) mice were grouped randomly (n=3 mice per group). Mice were administered vehicle (5% DMSO, 20% Cremophor) or compounds of Formula I at different doses either intravenously or by oral gavage, and venous blood samples (20-50 μL) were collected from each mouse over 24 hours. Blood samples were mixed with heparin (APP Pharmaceuticals; Schaumburg, Ill.) in 0.5 mL tubes in accordance with the manufacturer's instructions. After centrifugal separation at 3,000 g for 10 minutes, red blood cells (RBCs) in the bottom layer were transferred into a new tube and stored at −70° C. until use. RBCs were lysed with assay lysis buffer and incubated on ice for 30 minutes, mixing by vortex every 5 minutes, and then centrifuged at 12,000 g for 10 minutes. The supernatant was transferred to a 96-well plate and proteasome activity was measured as described in above for tumor cell lysates.
(§3) Proteasome subunit activity (Chymotrypsin-like, Trypsin-like, Caspase-like, CT-L, T-L, C-L, respectively) were monitored over the course of 24 hrs following […] administration of representative compounds of Formula I. NOD/SCID mice were treated with the compound from Example 1 (50 mg/kg by oral gavage) and the compound from Example 26 (60 mg/kg by oral gavage) or vehicle control for up to 24 hours, as described above.
(§4) Table 10 summarizes the data for the representative compounds of Formula (I); the compounds of Examples 1 and 26.

For series [2], the target named is T2, chymotrypsin-like (CT-L) proteasome activity (Mus musculus, UniProt O55234).
T2 construct: RBCs were lysed with assay lysis buffer and incubated on ice for 30 minutes; from tissue; host or cells: red blood cells of NOD/SCID mice after oral dosing
T2 sequence (O55234 60-264): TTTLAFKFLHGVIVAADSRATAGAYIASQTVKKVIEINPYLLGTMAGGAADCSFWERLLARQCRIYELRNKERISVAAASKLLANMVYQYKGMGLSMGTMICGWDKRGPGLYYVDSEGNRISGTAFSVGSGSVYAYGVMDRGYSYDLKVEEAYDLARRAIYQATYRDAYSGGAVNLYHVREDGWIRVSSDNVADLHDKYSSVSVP
The description is as above. The settings on record: oral gavage, Example 1 50 mg/kg, Example 26 60 mg/kg. In kind it is in vivo, NOD/SCID mice. The protocol: as §1, §2, §3, §4

For series [3], the target named is T3, Trypsin-like (T-L) proteasome activity (Mus musculus, UniProt P70195).
T3 construct: RBCs were lysed with assay lysis buffer and incubated on ice for 30 minutes; from tissue; host or cells: red blood cells of NOD/SCID mice after oral dosing
T3 sequence (P70195 44-277): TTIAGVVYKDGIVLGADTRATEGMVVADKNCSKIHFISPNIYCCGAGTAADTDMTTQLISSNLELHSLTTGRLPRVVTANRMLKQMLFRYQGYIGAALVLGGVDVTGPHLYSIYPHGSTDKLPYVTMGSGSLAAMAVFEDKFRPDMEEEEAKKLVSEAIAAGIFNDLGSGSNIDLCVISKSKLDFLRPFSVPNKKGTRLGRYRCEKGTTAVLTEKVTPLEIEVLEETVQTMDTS
The series is described as above. It is filed as in vivo, NOD/SCID mice. The settings on record: oral gavage, Example 1 50 mg/kg, Example 26 60 mg/kg. The protocol: as §1, §2, §3, §4

Series [4] has as its system high molecular weight ubiquitylated proteins in LP1 cells. Briefly: Immunoblotting assay of ubiquitylated proteins. In kind it is cell-based. The settings on record: Homo sapiens, LP-1, read-out: IC50 (increase of ubiquitylated proteins, immunoblot). How it is done: Whole cell lysates were prepared from LP1 cells in RIPA lysis buffer. Anti-ubiquitin antibody was purchased from Cell Signaling Technology Inc, (Danvers, Mass.) and anti-tubulin antibody was purchased from Sigma-Aldrich (St. Louis, Mo.). Secondary horseradish peroxidase-conjugated goat anti-mouse or anti-rabbit IgG was purchased from Amersham Bioscience (Piscataway, N.J.). Detection was performed using an enhanced chemiluminescence kit from Pierce, (Rockford, Ill.).
Background: In western blotting, separated proteins are transferred to a membrane and probed.

Series [5] has as its system AML2 mouse xenograft leukemia model. Briefly: Leukemia AML2 xenograft model. In kind it is in vivo. The settings on record: 30 mg/kg oral gavage. How it is done:
Sublethally irradiated NOD-SCID mice bearing an established human tumor xenograft derived from RL and BALB/c mice challenged with the murine tumor cell line AML2 were treated twice weekly on days 1 and 2 (QD×2) with a dose of 30 mg/kg to 200 mg/kg of the compound of Example 1 by oral gavage. Dosing began on Day 6 post tumor challenge.

On to `C[C@]1(C(=O)[C@H](Cc2ccccc2)NC(=O)[C@H](COC(F)F)NC(=O)[C@H](COC(F)F)NC(=O)CN2CCOCC2)CO1` [Example 26, (S)-N-{(S)-1-[(S)-1-Benzyl-2-((R)-2-methyl-oxiranyl)-2-oxo-ethylcarbamoyl]-2-difluoromethoxyethyl}-3-difluoromethoxy-2-(2-morpholin-4-yl-acetylamino)-propio-namide], for which the “Caspase-like (C-L) mean residual activity relative to vehicle treated controls” value in series [1] (30 min), in series [1] (24 hrs) and in series [1] (time 0) was 100% throughout. For the same molecule, the “chymotrypsin-like (CT-L) mean residual activity relative to vehicle treated controls” value in series [2] (30 min) came out at 33%; in series [2] (24 hours), 27%; in series [2] (time 0) it was 100%. Moreover, the “Trypsin-like (T-L) mean residual activity relative to vehicle treated controls” value in series [3] (30 min), in series [3] (24 hrs) and in series [3] (time 0) was 100% throughout.
What is called IC50 is the midpoint of a concentration-inhibition curve. As to `Cc1ncc(C(=O)N[C@@H](COC(F)F)C(=O)N[C@@H](COC(F)F)C(=O)N[C@@H](Cc2ccccc2)C(=O)[C@@]2(C)CO2)s1` [Example 1, 2-methyl-thiazole-5-carboxylic acid ((S)-1-{(S)-1-[(S)-1-benzyl-2-((R)-2-methyloxiranyl)-2-oxo-ethylcarbamoyl]-2-difluoromethoxyethylcarbamoyl}-2-difluoromethoxyethyl)-amide], the IC50 in series [4] was < 50 nM. Also, the “gross adverse effects including reductions in body weight or alterations in behaviour” value in series [5] is “no observed gross adverse effects”. In series [5] (twice weekly days 1 and 2 (QD×2)), the tumor growth inhibition entry was “greater than 40%”. Also, the “Caspase-like (C-L) mean residual activity relative to vehicle treated controls” value in series [1] (30 min), in series [1] (24 hrs) and in series [1] (time 0) was 100% each time. For the same molecule, the “chymotrypsin-like (CT-L) mean residual activity relative to vehicle treated controls” value in series [2] (30 min) is 27%; in series [2] (24 hours) it was 22%; in series [2] (time 0), 100%. Further, the “Trypsin-like (T-L) mean residual activity relative to vehicle treated controls” value in series [3] (30 min), in series [3] (24 hrs) and in series [3] (time 0) was 100% throughout.
As to `CC(C)C[C@H](NC(=O)[C@H](Cc1ccccc1)NC(=O)[C@H](COC(F)F)NC(=O)CN1CCOCC1)C(=O)[C@@]1(C)CO1` [Example 25, (2S)-2-[[(2S)-3-(difluoromethoxy)-2-[(2-morpholinoacetyl)amino]propanoyl]amino]-N-[(1S)-3-methyl-1-[(2R)-2-methyloxirane-2-carbonyl]butyl]-3-phenyl-propanamide], in series [4], the IC50 was < 50 nM.

The values above are taken from patent US9441012B2, “Fluorinated epoxyketone-based compounds and uses thereof as proteasome inhibitors” (FLUORINOV PHARMA INC., priority 2012, dated 2016).
